# Reference: US8106203B2, “Assay methods using chemiluminescent detection of peroxidase” (Lumigen, Inc., priority 2001, dated 2012)
# Assays:
# HRP [1] = target: T1, HRP (Armoracia rusticana, UniProt P00433); assay: Comparison of signal intensity (Example 9): chemiluminescence on reaction of reagent with HRP; type: biochemical, horseradish; conditions: 5×10^−5 M compound, 0.01 M tris pH 8, 0.5 mM urea peroxide, 0.1 mM p-phenylphenol, 0.025% Tween 20; 3.5×10^−16 moles of HRP
# T1 sequence (P00433 31-338): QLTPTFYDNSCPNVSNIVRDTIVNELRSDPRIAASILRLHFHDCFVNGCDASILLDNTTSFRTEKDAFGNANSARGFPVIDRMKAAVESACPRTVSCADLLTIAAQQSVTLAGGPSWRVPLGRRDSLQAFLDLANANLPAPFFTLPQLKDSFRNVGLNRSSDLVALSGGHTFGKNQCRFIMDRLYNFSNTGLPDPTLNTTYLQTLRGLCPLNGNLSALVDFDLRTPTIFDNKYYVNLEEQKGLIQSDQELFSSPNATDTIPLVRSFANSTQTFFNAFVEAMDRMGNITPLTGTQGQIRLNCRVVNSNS
# Method: Reagent compositions comprising 0.01 M tris buffer, pH 8, 0.5 mM urea peroxide, 0.1 mM p-phenylphenol, […], 0.025% Tween 20, and 5×10^−5 M of each compound in the table below except the compound designated Ref. 1 were tested for production of chemiluminescence by reacting a 100 μL aliquot with 3.5×10^−16 moles of HRP. The reagent formulation for Ref. 1 comprised 0.05 M tris buffer, pH 8.6, 0.25 mM urea peroxide, 0.05 mM p-phenylphenol, 0.5 mM EDTA, 0.0125% Tween 20, and 3.3×10^−4 M Ref. 1. For comparison, data are provided for reference compounds 1 and 2.
# HRP [2] = target: T1, HRP; assay: Comparison of signal intensity (Example 10): maximum signal with HRP; type: biochemical, horseradish; conditions: 3×10^−4 M compound, 0.025 M tris pH 8, 2.5 mM urea peroxide, 4 mM p-hydroxycinnamic acid; 3.5×10^−16 moles of HRP
# Method: (§1) The maximum signal produced by each of compounds 14, and 27-29 was compared by reacting a 100 μL aliquot of reagent compositions comprising 0.025 M tris buffer, pH 8, 2.5 mM urea peroxide, 4 mM p-hydroxycinnamic acid, 0.5 mM EDTA, 0.1% Tween 20, and 3×10^−4 M of the test compound with 3.5×10^−16 moles of HRP. Each reagent reached maximum light intensity in about 1 minute.
# HRP [3] = target: T1, HRP; assay: Chemiluminescent detection of HRP with compound 14; type: biochemical, horseradish; conditions: 3×10^−4 M compound 14, pH 8.0, p-hydroxycinnamic acid
# Method: Reagent compositions comprising 0.025 M tris buffer, pH 8.0, 2.5 mM urea peroxide, 4 mM p-hydroxycinnamic acid, 0.5 mM EDTA, 0.1% Tween 20 and 3×10^−4 M compound 14 were tested for production of chemiluminescence by reacting triplicate 100 μL aliquots with 10 μL of HRP in the range 1.4×10^−16 to 1.4×10^−20 moles. Light production ensued upon mixing and reached maximum intensity in about 1 min. The relation between chemiluminescence intensity and amount of enzyme is depicted in FIG. 1. For comparison, the relationship between S-B and amount of HRP is also shown for reference compound 1 having the formula:
# The results for the reference compound were measured 15 minutes after addition of 10 μL of solutions of HRP containing between 1.4×10^−15 and 1.4×10^−19 moles of enzyme to 100 μL of the reagent comprising 0.055 M tris buffer, pH 8.6, 0.25 mM urea peroxide, 0.05 mM p-phenylphenol, 0.5 mM EDTA, 0.0125% Tween 20 and 3.3×10^−4 M of Ref 1.
# HRP [4] = target: T1, HRP; assay: Chemiluminescent detection of HRP with compound 27; type: biochemical, horseradish; conditions: 3×10^−4 M compound 27, pH 8.0, p-hydroxycinnamic acid
# Method: Reagent compositions comprising 0.025 M tris buffer, pH 8.0, 2.5 mM urea peroxide, 4 mM p-hydroxycinnamic acid, 0.5 mM EDTA, 0.1% Tween 20 and 3×10^−4 M compound 27 were tested for production of chemiluminescence by reacting triplicate 100 μL aliquots with 10 μL of HRP in the range 1.4×10^−16 to 1.4×10^−20 moles. Light production ensued upon mixing and reached maximum intensity in about 1 min. The relation between chemiluminescence intensity at 1.5 min and amount of enzyme is depicted in FIG. 2 along with the results for Ref. compound 1 at 15 min as described above.
# HRP [5] = target: T1, HRP; assay: Chemiluminescence time profile (Example 12); type: biochemical, horseradish; conditions: 3×10^−4 M compound 27, 3.5×10^−16 moles of HRP; compared with reagents of Example 11
# Method: Reagent compositions comprising 0.025 M tris buffer, pH 8.0, 2.5 mM urea peroxide, 4 mM p-hydroxy-cinnamic acid, 0.5 mM EDTA, 0.1% Tween 20, and 3×10^−4 M compound 27 were tested for production of chemiluminescence by reacting a 100 μL aliquot with 3.5×10^−16 moles of HRP.
# HRP [6] = target: T1, HRP; assay: Comparison of signal intensity (Example 17): maximum signal with HRP; type: biochemical, horseradish; conditions: 1 mM test compound (Formulation 1.0); 3.5×10^−16 moles of HRP
# Method: as §1, with “40-51” for “14, and 27-29”, “either 1 mM, 0.3 mM, 0.15 mM or 0.05 mM” for “3×10^−4 M”, “1-3 minutes.” for “about 1 minute.”
# HRP-labeled antibody [7] = target: T2, HRP-labeled antibody (Armoracia rusticana, UniProt P00433); assay: Western blot of β-galactosidase on nitrocellulose membrane with compound 46; type: biochemical; conditions: 1 mM compound 46, nitrocellulose, time points up to 120 min
# T2 sequence (P00433 31-338): T1 sequence (P00433 31-338)
# Method: A western blot assay of β-galactosidase as the test antigen was conducted according to the procedure described in U. K. Laemmli, Nature (London), 227, 680 (1970) using a PVDF membrane. β-Galactosidase standards in the range of 5000-5 pg. The detection reagent containing Compound 1 permitted detection to be performed in under 1 minute.
# (§2) Western blot assays of β-galactosidase were conducted according to Example 13 but using nitrocellulose membrane and a detection reagent comprising 0.025 M tris buffer, pH 8.0, 2.5 mM urea peroxide, 4 mM p-hydroxycinnamic acid, 0.5 mM EDTA, 0.1% Tween 20, and 1 mM compound 46.
# HRP [8] = target: T1, HRP; assay: Stability of working solutions by solution assay; type: physicochemical, horseradish; set-up: key to Activity / Activity (Control): maximum chemiluminescence intensity (arbitrary light units); conditions: for Activity (Control): fresh reagent from components stored at 4° C.; for Activity: stored working solution
# Method: Reagent stability of the working solutions of compound 53 and compound 46 was assessed by preparing the working solution by combining 50 μL aliquots of the two component solutions and storing the mixed solutions at 4° C. or room temperature. The working solution contained 0.025 M tris buffer, pH 8, 2.5 mM urea peroxide, 4 mm p-hydroxycinnamic acid, 0.5 mM EDTA, 0.1% Tween 20, and 0.05 mM of the substrate. Chemiluminescent assays were run with 3.5×10^−16 moles of HRP at 25° C. Maximum intensity results were compared to the values obtained with fresh reagent prepared from the individual components stored at 4° C. […] The composition containing compound 53 was unchanged after four months at 4° C., that containing compound 46 was unchanged after 9 months at 4° C.
# HRP-labeled antibody [9] = target: T2, HRP-labeled antibody; assay: Stability of working solution by western blot assay; type: physicochemical; conditions: stored 1 year at 4° C.
# Method: as §2
# A further measure of the long term stability of a working solution containing compound 46 was provided by serial western blot assays over a 1 year period according to the procedure in example 18. FIG. 9 depicts the performance comparison in the western blot protocol described above using fresh vs. 1 year old working solutions.
# peroxidase = conditions: reacted with HRP; disclosed in U.S. Pat. No. 5,922,558; cited from earlier work
compound,measurement,setting,value
CSC(SCCCS(=O)(=O)[O-])=C1c2ccccc2N(c2ccccc2)c2ccccc21.[Na+] [Compound 14],Signal/Background,HRP [1],688
same,Signal/Background,HRP [2],2491
same,time to reach maximum intensity,HRP [3],about 1 min
CSC(SCCCS(=O)(=O)[O-])=C1c2ccccc2N(Cc2ccccc2)c2ccccc21.[Na+] [Compound 27],Signal/Background,HRP [1],533
same,Signal/Background,HRP [2],6933
same,time to reach maximum intensity,HRP [4],about 1 min
same,relative chemiluminescence time profile,HRP [5],rapid generation of chemiluminescence and higher signal level
O=S(=O)([O-])CCCOC1CSC(=C2c3ccccc3N(c3ccccc3)c3ccccc32)SC1.[Na+] (stereo not shown) [Compound 46],Signal/Background,HRP [6],13000
same,detection of β-gal,HRP-labeled antibody [7],excellent sensitivity
same,% Rel. Activity (Control),HRP [8]; 2 months,101.6%
same,% Rel. Activity (Control),HRP [8]; 3.5 months,100.2%
same,% Rel. Activity (Control),HRP [8]; 4 months,100.0%
same,% Rel. Activity (Control),HRP [8]; 6 months,97.0%
same,% Rel. Activity (Control),HRP [8]; 9 months,99.3%
same,working solution composition after storage,HRP [8]; 9 months at 4° C.,unchanged
same,% Rel. Activity (Control),HRP [8]; 12 months,90.9%
same,Activity (Control),HRP [8]; 2 months,610
same,Activity (Control),HRP [8]; 3.5 months,613
same,Activity (Control),HRP [8]; 4 months,600
same,Activity (Control),HRP [8]; 6 months,660
same,Activity (Control),HRP [8]; 9 months,720
same,Activity (Control),HRP [8]; 12 months,660
same,Activity,HRP [8]; 2 months,620
same,Activity,HRP [8]; 3.5 months,614
same,Activity,HRP [8]; 4 months,600
same,Activity,HRP [8]; 6 months,640
same,Activity,HRP [8]; 9 months,715
same,Activity,HRP [8]; 12 months,600
same,reagent performance on storage of working solution,"HRP [8]; up to three weeks at room temperature, 0.05 mM substrate",no deterioration of reagent performance
same,"western blot performance, fresh vs. 1 year old working solution",HRP-labeled antibody [9],no diminution in blotting assay sensitivity
COC(Sc1ccccc1)=C1c2ccccc2N(C)c2ccccc21 [drawing 18],time to reach maximum chemiluminescence intensity,peroxidase,7 min
